The target in series [1] is GSPT1 (Homo sapiens, UniProt P15170+Q96SW2). To be noted: cereblon-dependent; also other targets such as IKZF1 and IKZF3 (Matyskiela, Lu et al. 2016); cited from earlier work.
The test system of series [2] is tested cell lines. To be noted: tested cell lines (Matyskiela, Lu et al. 2016); cited from earlier work.
The subject of series [3] is MV4;11 cells. The series can be described thus: Cell viability assay (CellTiter-Glo) in MV4;11 cells, alone or with gilteritinib. Type of series: cell-based. To be noted: Homo sapiens, MV4-11, 72 h, MV4;11 cells, CellTiter-Glo, read-out: MV4.
Series [4] concerns MOLM-13 cells. The series is described as follows: Cell viability assay (CellTiter-Glo) in MOLM-13 cells, alone or with gilteritinib. Type of series: cell-based. The settings on record: MOLM-13 cells; for IC50: Homo sapiens, MOLM-13, 72 h, CellTiter-Glo; for Sensitivity of FLT3-mutant AML cells to GSPT1 degrader upon FLT3 inhibition: with or without 20 nM gilteritinib, 3 days (FIG. 2A-2C).

Series [5] has as its system MOLM-13 cells. The series is described as follows: Cell viability / cell growth inhibition of MOLM-13 cells, GSPT1 degrader with or without gilteritinib. To be noted: combined with FLT3 inhibitor gilteritinib (20 nM in FIG. 2A-2C). In kind it is cell-based. On the procedure: FIG. 2A is a graph of cell viability in MOML-13 cells treated with varying doses of GS-002, with or without gilteritinib at 20 nM.
FIG. 2B is a graph of cell viability in MOML-13 cells treated with varying doses of GS-005, with or without gilteritinib at 20 nM.
FIG. 2C is a graph of cell viability in MOML-13 cells treated with varying doses of GS-006, with or without gilteritinib at 20 nM.
When combined with FLT3 inhibitor gilteritinib, the potency of some of the compounds was increased synergistically.

Where [6] appears, read: with 10 nM gilteritinib, 3 days, 11 IC50 gilteritinib.
The mark [7] stands for this setting: without gilteritinib, 3 days, 11 IC50.
[8] abbreviates: with 20 nM gilteritinib, 3 days, read-out: MOLM-13 IC50 gilteritinib.
Where [9] appears, read: without gilteritinib, 3 days, read-out: MOLM-13 IC50.
[10] abbreviates: compound alone (without gilteritinib), three days, 11 IC50.
Setting [11] is: compound alone (without gilteritinib), three days, read-out: MOLM-13 IC50.

The text below walks through data of patent US20240050428A1 (Cullgen (Shanghai), Inc., priority 2020, published 2024).

Where two headings read alike, the source gives them in different places.

Chain of GSPT1 (P15170 whole entry): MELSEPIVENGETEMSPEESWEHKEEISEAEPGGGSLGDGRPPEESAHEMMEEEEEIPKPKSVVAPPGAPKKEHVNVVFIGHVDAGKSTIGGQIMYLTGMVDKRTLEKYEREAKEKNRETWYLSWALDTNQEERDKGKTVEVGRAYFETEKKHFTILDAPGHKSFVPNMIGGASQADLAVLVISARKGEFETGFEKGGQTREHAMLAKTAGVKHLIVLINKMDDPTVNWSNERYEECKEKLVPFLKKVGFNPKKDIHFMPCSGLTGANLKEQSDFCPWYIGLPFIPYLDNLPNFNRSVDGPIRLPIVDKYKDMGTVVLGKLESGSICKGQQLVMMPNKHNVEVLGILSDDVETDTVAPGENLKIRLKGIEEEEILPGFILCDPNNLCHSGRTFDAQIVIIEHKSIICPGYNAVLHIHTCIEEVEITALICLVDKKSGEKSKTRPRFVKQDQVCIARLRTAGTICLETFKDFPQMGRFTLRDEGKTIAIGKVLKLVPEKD
Chain of GSPT1 (Q96SW2 whole entry): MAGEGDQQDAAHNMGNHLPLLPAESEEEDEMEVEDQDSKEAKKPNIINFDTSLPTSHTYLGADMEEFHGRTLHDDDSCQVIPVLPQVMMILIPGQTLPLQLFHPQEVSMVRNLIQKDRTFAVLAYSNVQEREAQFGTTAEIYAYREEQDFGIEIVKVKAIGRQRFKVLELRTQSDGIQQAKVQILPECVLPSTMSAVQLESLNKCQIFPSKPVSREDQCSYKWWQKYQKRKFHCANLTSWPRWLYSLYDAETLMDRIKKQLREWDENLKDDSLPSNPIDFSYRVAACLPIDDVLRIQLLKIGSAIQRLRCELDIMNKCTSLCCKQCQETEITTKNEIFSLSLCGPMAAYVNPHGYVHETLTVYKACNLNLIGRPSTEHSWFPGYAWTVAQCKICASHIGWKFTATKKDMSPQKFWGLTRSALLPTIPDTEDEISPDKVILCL
Chain of GSPT1 (Q16531 whole entry partner): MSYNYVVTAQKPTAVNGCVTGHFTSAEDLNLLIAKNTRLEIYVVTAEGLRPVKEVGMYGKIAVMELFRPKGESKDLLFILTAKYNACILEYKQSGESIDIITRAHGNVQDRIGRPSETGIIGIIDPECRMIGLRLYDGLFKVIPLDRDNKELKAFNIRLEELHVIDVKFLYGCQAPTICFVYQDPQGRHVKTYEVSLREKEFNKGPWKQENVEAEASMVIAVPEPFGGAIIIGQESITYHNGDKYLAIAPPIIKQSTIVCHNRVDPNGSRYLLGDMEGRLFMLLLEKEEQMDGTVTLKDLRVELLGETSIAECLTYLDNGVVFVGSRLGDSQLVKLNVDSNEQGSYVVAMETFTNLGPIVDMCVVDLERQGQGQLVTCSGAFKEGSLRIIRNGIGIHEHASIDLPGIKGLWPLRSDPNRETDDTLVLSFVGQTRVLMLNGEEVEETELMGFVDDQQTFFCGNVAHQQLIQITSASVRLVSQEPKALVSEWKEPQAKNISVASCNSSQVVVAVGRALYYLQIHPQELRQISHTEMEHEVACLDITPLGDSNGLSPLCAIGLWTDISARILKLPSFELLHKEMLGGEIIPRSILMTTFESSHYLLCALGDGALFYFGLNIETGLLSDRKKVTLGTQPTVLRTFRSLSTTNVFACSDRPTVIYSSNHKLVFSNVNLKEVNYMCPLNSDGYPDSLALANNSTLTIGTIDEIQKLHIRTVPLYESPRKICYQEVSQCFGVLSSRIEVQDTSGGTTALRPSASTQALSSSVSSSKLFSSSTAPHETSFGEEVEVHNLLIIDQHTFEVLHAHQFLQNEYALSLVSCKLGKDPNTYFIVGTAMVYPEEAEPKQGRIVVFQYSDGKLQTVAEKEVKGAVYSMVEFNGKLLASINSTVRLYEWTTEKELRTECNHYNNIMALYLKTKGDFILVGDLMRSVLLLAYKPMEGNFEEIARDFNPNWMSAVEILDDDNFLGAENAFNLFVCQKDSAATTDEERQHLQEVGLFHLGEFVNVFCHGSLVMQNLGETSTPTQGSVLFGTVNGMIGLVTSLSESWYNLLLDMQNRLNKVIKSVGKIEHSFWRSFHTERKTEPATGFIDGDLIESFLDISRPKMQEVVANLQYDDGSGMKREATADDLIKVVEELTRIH

On to `Cc1ccc(NC(=O)NCc2ccc3c(c2)CN(C2CCC(=O)NC2=O)C3=O)cc1Cl` (centres unmarked) [CC-885], for which, in series [1], the “degradation of GSPT1” value was “cereblon-dependent degradation of GSPT1”. In series [2], the “toxicity in cell lines” value is “significant toxicity in the vast majority of tested cell lines”.

For `O=C1CCC(N2C(=O)c3ccc(NCCCCCC(=O)N4CCC(n5cc(-c6cnc7ccccc7n6)cn5)CC4)cc3C2=O)C(=O)N1` (centres unmarked) [GS-005, 2-(2,6-dioxopiperidin-3-yl)-5-((6-oxo-6-(4-(4-(quinoxalin-2-yl)-1H-pyrazol-1-yl)piperidin-1-yl)hexyl)amino)isoindoline-1,3-dione], the IC50 worked out at 1.8 nM in series [3] (setting [6]), 6 nM in series [3] (setting [7]), 0.2 nM in series [4] (setting [8]) and 11.8 nM in series [4] (setting [9]). For the same compound, the “Sensitivity of FLT3-mutant AML cells to GSPT1 degrader upon FLT3 inhibition” value in series [4] is listed as “remarkably increases sensitivity”. For the same compound, in series [5], the “potency combined with gilteritinib, cell growth inhibition” value was “significantly improved”.

On to `O=C1CCC(N2C(=O)c3ccc(NCCCCCC(=O)N4CCC(n5cc(-c6cnc7cccc(Br)c7n6)cn5)CC4)cc3C2=O)C(=O)N1` (centres unmarked) [GS-002, 5-((6-(4-(4-(8-bromoquinoxalin-2-yl)-1H-pyrazol-1-yl)piperidin-1-yl)-6-oxohexyl)amino)-2-(2,6-dioxopiperidin-3-yl)isoindoline-1,3-dione], for which the IC50 in series [3] (setting [6]) is 3 nM; in series [3] (setting [7]) it was 227 nM; in series [4] (setting [8]), 1.9 nM; in series [4] (setting [9]), 583 nM. Moreover, in series [4], the “Sensitivity of FLT3-mutant AML cells to GSPT1 degrader upon FLT3 inhibition” value is listed as “remarkably increases sensitivity”. Further, the “potency combined with gilteritinib, cell growth inhibition” value in series [5] is on record as “significantly improved”.

Regarding `O=C1CCC(N2C(=O)c3ccc(NCCCCCC(=O)N4CCC(n5cc(-c6ccc7ccccc7n6)cn5)CC4)cc3C2=O)C(=O)N1` (centres unmarked) [GS-006, 2-(2,6-dioxopiperidin-3-yl)-5-((6-oxo-6-(4-(4-(quinolin-2-yl)-1H-pyrazol-1-yl)piperidin-1-yl)hexyl)amino)isoindoline-1,3-dione], the IC50 in series [3] (setting [6]) was found to be 4.6 nM; in series [3] (setting [7]), 12 nM; in series [4] (setting [8]) it was 0.3 nM; in series [4] (setting [9]), 29 nM. The “Sensitivity of FLT3-mutant AML cells to GSPT1 degrader upon FLT3 inhibition” value in series [4] was “remarkably increases sensitivity”. Also, the “potency combined with gilteritinib, cell growth inhibition” value in series [5] is given as “significantly improved”.

In the case of `O=C1CCC(N2C(=O)c3ccc(NCCCc4cccc(N5CCC(n6cc(-c7cnc8ccccc8n7)cn6)CC5)c4)cc3C2=O)C(=O)N1` (centres unmarked) [GS-368, 2-(2,6-Dioxopiperidin-3-yl)-5-((3-(3-(4-(4-(quinoxalin-2-yl)-1H-pyrazol-1-yl)piperidin-1-yl)phenyl)propyl)amino)isoindoline-1,3-dione], the IC50 was under 10 nM in series [3] (setting [10]); under 10 nM in series [3] (with gilteritinib 10 nM, three days, 11 IC50 gilteritinib); under 10 nM in series [4] (setting [11]); under 10 nM in series [4] (with gilteritinib 20 nM, three days, read-out: MOLM-13 IC50 gilteritinib).

Regarding `O=C1CCC(N2C(=O)c3ccc(NC[C@H]4C[C@H](n5cc(C6CCCCC6)c(C6CC6)n5)C4)cc3C2=O)C(=O)N1` (stereo partly drawn) [GS-468, 5-(((trans-3-(4-cyclohexyl-3-cyclopropyl-1H-pyrazol-1-yl)cyclobutyl)methyl)amino)-2-(2,6-dioxopiperidin-3-yl)isoindoline-1,3-dione], the IC50 fell in the range of 10 to 100 nM in series [3] (setting [10]); 10 to 100 nM in series [3] (compound with gilteritinib 10 nM, three days, 11 IC50 gilteritinib); 100 to 1000 nM in series [4] (setting [11]); 10 to 100 nM in series [4] (compound with gilteritinib 20 nM, three days, read-out: MOLM-13 IC50 gilteritinib).

For the compound `O=C1CCC(N2C(=O)c3ccc(NCCCCCC(=O)N4CCC(c5ccccn5)CC4)cc3C2=O)C(=O)N1` (centres unmarked) [GS-017, 2-(2,6-Dioxopiperidin-3-yl)-5-((6-oxo-6-(4-(pyridin-2-yl)piperidin-1-yl)hexyl)amino)isoindoline-1,3-dione], the IC50 was found to be 2 nM in series [3] (setting [6]), 20 nM in series [3] (setting [7]), 2 nM in series [4] (setting [8]) and 30 nM in series [4] (setting [9]).
